Reference: patent US20030153552A1, “Method of treating chemical dependency in mammals and a composition therefor” (priority 2002, published 2003)

Experiment: plasma concentration of ibogaine and its metabolite 12-hydroxy ibogamine over time after ibogaine administration to a human patient
Assay type: in vivo
Protocol: An amount of ibogaine was administered to a human patient, and the plasma concentration of both ibogaine and a metabolite thereof, 12-hydroxy ibogamine, were observed as a function of time.
FIG. 1 illustrates the result of administering a certain dosage of ibogaine to a human patient, where the plasma concentration of ibogaine is measured over time. In essence, a peak plasma concentration of about 1,100 ng/ml is observed at administration. It is also notable that at about 11 hours after ibogaine administration, plasma concentration of ibogaine diminished to less than 400 ng/ml. After about 24 hours, plasma concentration diminished to less than 200 ng/ml. Thus, ibogaine is rather quickly eliminated by the patient.
By contrast, FIG. 2 illustrates the variation of noribogaine plasma concentration with time as a metabolite from the same ibogaine administration described above. In essence, a peak plasma concentration of noribogaine of about 590 ng/ml was reached only after about 11 hours from administration. Thereafter, even at 24 hours, a plasma concentration of greater than 500 ng/ml was observed.

Structure (SMILES): CC[C@H]1C[C@H]2C[C@H]3c4[nH]c5ccc(O)cc5c4CCN(C2)[C@@H]13 [noribogaine, 12-hydroxy ibogamine]
- plasma half-life compared with ibogaine (after ibogaine administration): much longer plasma half-life than ibogaine
- plasma concentration of noribogaine (at 24 hours, noribogaine as metabolite from ibogaine administration (FIG. 2)): greater than 500 ng/ml
- time to peak plasma concentration of noribogaine (from ibogaine administration, noribogaine as metabolite (FIG. 2)): about 11 hours
- peak plasma concentration of noribogaine (noribogaine as metabolite from ibogaine administration (FIG. 2)): about 590 ng/ml

Structure (SMILES): CC[C@H]1C[C@H]2C[C@H]3c4[nH]c5ccc(OC)cc5c4CCN(C2)C13 [ibogaine, reference compound]
- peak plasma concentration of ibogaine (after ibogaine administration, (FIG. 1)): about 1,100 ng/ml
- concentration at 24 h (plasma, after about 24 hours (FIG. 1)): < 200 ng/mL
- concentration at 11 h (plasma, at about 11 hours after ibogaine administration (FIG. 1)): < 400 ng/mL
